Data from PMC7762955, “Antibiotic binding releases autoinhibition of the TipA multidrug-resistance transcriptional regulator” (The Journal of Biological Chemistry, 2020).

Columns and labels:
[1] = biological target: T1, F123A/F126A mutant of TipAL (Streptomyces lividans, UniProt P0A4T9, F123A/F126A); assay: FPA, thiostrepton-induced activation of F123A/F126A TipAL-ptipA binding; type: biochemical; details: thiostrepton 1:1, 15 min
Description: (§1) FPAs were performed in buffer consisting of 20 mM Tris-HCl, pH 7.5, 200 mM NaCl and 5% (v/v) glycerol at 298 K using a SpectraMax M5 microplate reader system (Molecular Devices, San Jose, CA, USA). The wavelengths of fluorescence excitation and emission were 486 and 525 nm, respectively. 26-bp dsDNA from the −10 and −35 regions of the tipA, mta, and skgA promoters with the sequences […], […], and […] were synthesized with a 5′-carboxyfluorescein label for the respective assays with TipAL, Mta, and SkgA proteins. For assays with thiostrepton supplementation, proteins were incubated with thiostrepton (Sigma) at a 1:1 ratio for 15 min prior to mixing with DNA in wells. Each well of a 384-well plate contained 10 nM of a fluorescently labeled DNA probe and different amounts of proteins with a final volume of 80 μl. DNA-free controls were included, and three replicates were performed for each reaction for each assay. The fluorescence polarization ΔP (in mP units) was calculated and fitted according to a one-site specific binding model using GraphPad Prism7 (GraphPad Software) with the function ΔP = ΔPmax[protein]/(Kd + [protein]).

F123A mutant of TipAL [2] = biological target: T2, F123A mutant of TipAL (Streptomyces lividans, UniProt P0A4T9, F123A); assay: FPA, thiostrepton-induced activation of F123A TipAL-ptipA binding; type: biochemical; details: thiostrepton 1:1, 15 min
Description: as §1

TipAL [3] = assay: FPA, thiostrepton-induced activation of TipAL-ptipA binding; type: biochemical, Streptomyces lividans; details: WT TipAL with vs without thiostrepton (1:1, 15 min)
Description: as §1

[4] = biological target: T1, F123A/F126A mutant of TipAL; assay: Isothermal titration calorimetry, thiopeptide binding to F123A/F126A TipAL
Description: (§2) The ITC binding studies of the nosiheptide (Sigma) with WT TipAL and its mutants were performed using an ITC200 (GE Healthcare) at 298 K using a previously described protocol ([38]), with 60 μl of nosiheptide solution in the injector cell and 260 μl of protein solution in the sample cell. The injection volumes were set to […] for all experiments, and two consecutive injections were separated by 2 min to reset the baseline. The control experiments, in which nosiheptide was titrated against the buffer, were also conducted, and the results were subtracted from the results of each standard experiment for adjustments. Three replicates were performed for each reaction. The final data were processed with a one-site fitting model using Microcal-Origin (OriginLab Corp, Northampton, MA, USA).

[5] = biological target: I112A/F123A mutant of TipAL (Streptomyces lividans, UniProt P0A4T9, F123A/I112A); assay: Isothermal titration calorimetry, thiopeptide binding to I112A/F123A TipAL
Description: as §2

WT TipAL = WT TipAL (Streptomyces lividans, UniProt P0A4T9); assay: Isothermal titration calorimetry, thiopeptide binding to WT TipAL
Description: as §2

F123A mutant of TipAL [6] = biological target: T2, F123A mutant of TipAL; assay: Isothermal titration calorimetry, thiopeptide binding to F123A TipAL
Description: as §2

[7] = set-up: method as in PMID 11669632, PMID 14985361; details: ref [19], [26]; cited from earlier work
[8] = biological target: tipA promoter DNA (ptipA); assay: Fluorescence polarization assay, tipA promoter DNA binding; set-up: species or system Streptomyces lividans; details: apo, no antibiotic; FPA, 10 nM 5'-carboxyfluorescein-labeled 26-bp dsDNA, 20 mM Tris-HCl pH 7.5, 200 mM NaCl, 5% glycerol, 298 K; ex 486/em 525 nm; one-site binding fit; three replicates; n.b. = printed in picture, not defined; read-out: Kd, affinity with the tipA promoter DNA (ptipA)
Description: Fluorescence polarization assays (FPAs) were performed to test the structure-based hypothesis that α6–α7 plays a key role in communication between the ligand-binding and DNA-binding regions. […] Parallel experiments were also performed for Mta and SkgA proteins, and consistent results were obtained.
as §1

TipAL F123A/F126A = biological target: T3, TipAL F123A/F126A (Streptomyces lividans, UniProt P0A4T9 1-253, F123A;F126A); assay: fluorescence polarization; thiostrepton 1:1; 20 mM Tris-HCl pH 7.5, 200 mM NaCl, 5% (v/v) glycerol, 298 K; 10 nM labeled DNA; details: protein: recombinant; tags: His6 (pET-28a); chain copies: 2; label: 5'-carboxyfluorescein; blunt
T3 sequence: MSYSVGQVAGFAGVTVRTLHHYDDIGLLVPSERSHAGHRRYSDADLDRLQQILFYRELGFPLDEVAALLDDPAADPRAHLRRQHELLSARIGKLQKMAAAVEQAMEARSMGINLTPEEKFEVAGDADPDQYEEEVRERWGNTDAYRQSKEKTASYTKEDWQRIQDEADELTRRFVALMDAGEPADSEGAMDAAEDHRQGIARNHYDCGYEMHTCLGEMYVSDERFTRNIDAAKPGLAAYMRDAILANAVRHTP

TipAL F123A = biological target: T4, TipAL F123A (Streptomyces lividans, UniProt P0A4T9 1-253, F123A); assay: as above; details: protein: recombinant; tags: His6 (pET-28a); chain copies: 2; label: 5'-carboxyfluorescein; blunt
T4 sequence: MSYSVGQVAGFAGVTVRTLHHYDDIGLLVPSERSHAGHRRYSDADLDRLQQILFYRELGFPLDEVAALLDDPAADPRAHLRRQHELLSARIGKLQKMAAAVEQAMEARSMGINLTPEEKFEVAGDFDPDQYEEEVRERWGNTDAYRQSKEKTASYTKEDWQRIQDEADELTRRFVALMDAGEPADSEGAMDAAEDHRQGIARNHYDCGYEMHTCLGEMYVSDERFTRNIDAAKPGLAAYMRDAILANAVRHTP

TipAL I112A/F123A = biological target: T5, TipAL I112A/F123A (Streptomyces lividans, UniProt P0A4T9 1-253, I112A;F123A); assay: as above; details: protein: recombinant; tags: His6 (pET-28a); chain copies: 2; label: 5'-carboxyfluorescein; blunt
T5 sequence: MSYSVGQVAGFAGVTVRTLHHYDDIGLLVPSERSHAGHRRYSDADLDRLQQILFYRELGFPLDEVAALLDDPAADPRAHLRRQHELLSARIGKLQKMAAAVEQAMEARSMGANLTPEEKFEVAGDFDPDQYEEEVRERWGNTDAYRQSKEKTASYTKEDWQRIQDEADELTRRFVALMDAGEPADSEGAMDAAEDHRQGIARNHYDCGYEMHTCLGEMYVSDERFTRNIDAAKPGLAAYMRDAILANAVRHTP

TipAL [9] = biological target: T6, TipAL (Streptomyces lividans, UniProt P0A4T9 1-253); assay: as above; details: protein: recombinant; tags: His6 (pET-28a); chain copies: 2; label: 5'-carboxyfluorescein; blunt
T6 sequence: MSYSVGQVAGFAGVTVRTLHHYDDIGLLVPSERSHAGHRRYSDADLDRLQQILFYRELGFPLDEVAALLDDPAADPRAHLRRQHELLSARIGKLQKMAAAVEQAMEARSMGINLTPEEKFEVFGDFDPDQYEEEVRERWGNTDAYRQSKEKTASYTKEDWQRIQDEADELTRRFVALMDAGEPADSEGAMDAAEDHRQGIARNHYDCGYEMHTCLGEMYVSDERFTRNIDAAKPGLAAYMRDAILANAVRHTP

TipAH7 = biological target: T7, TipAH7 (Streptomyces lividans, UniProt P0A4T9 1-140); assay: fluorescence polarization; no thiostrepton; 20 mM Tris-HCl pH 7.5, 200 mM NaCl, 5% (v/v) glycerol, 298 K; 10 nM labeled DNA; details: protein: recombinant; tags: His6 (pET-28a); chain copies: 2; label: 5'-carboxyfluorescein; blunt
T7 sequence: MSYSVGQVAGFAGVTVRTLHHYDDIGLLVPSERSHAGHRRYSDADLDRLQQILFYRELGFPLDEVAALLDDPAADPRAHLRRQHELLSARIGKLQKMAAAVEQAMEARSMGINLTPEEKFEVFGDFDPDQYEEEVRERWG

TipAN = biological target: T8, TipAN (Streptomyces lividans, UniProt P0A4T9 1-109); assay: as above; details: protein: recombinant; tags: His6 (pET-28a); chain copies: 2; label: 5'-carboxyfluorescein; blunt
T8 sequence: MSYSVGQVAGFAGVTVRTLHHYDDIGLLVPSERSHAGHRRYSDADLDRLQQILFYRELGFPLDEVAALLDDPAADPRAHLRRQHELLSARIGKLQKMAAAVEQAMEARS

In the case of `C=C(NC(=O)C(=C)NC(=O)c1csc(C2=N[C@@H]3c4csc(n4)[C@H]4NC(=O)c5csc(n5)[C@H]([C@](C)(O)[C@@H](C)O)NC(=O)[C@H]5CSC(=N5)/C(=C/C)NC(=O)[C@H]([C@@H](C)O)NC(=O)c5csc(n5)[C@]3(CC2)NC(=O)[C@H](C)NC(=O)C(=C)NC(=O)[C@H](C)NC(=O)[C@H]([C@@H](C)CC)N[C@@H]2C=Cc3c([C@H](C)O)cc(nc3[C@H]2O)C(=O)O[C@@H]4C)n1)C(N)=O` [thiostrepton], the “rise in ptipA binding in the presence of thiostrepton” value [1] is reported as “did not show such a significant rise”, the “rise in ptipA binding in the presence of thiostrepton” value (F123A mutant of TipAL [2]) is reported as “did not show such a significant rise” and the “increase in ptipA affinity of TipAL by thiostrepton binding” value (TipAL [3]) is reported as about 12.6 fold.

In the case of `C=C(NC(=O)c1csc(-c2nc3c(cc2O)-c2nc(cs2)C(=O)NC(C(C)O)C(=O)N/C(=C\C)c2nc(cs2)C(=O)NC2CC(O)C(=O)OCc4cccc5[nH]c(c(C)c45)C(=O)SCC(NC(=O)c4csc2n4)c2nc-3cs2)n1)C(N)=O` (stereo not drawn) [thiopeptide, nosiheptide], the Kd [4] is reported as 13200 ± 1360 nM, the “decrease in thiopeptide affinity vs WT” value ([4]; F123A/F126A vs WT TipAL, ITC) is reported as about 2.5 fold and the Kd [5] is reported as 7510 ± 870 nM. For the same molecule, the “thiopeptide-binding affinity compared with WT and F123A” value ([5]; I112A/F123A vs WT and F123A TipAL, ITC) was “without a significant difference”, the Kd (WT TipAL) was 5230 ± 840 nM and the Kd (F123A mutant of TipAL [6]) was 7120 ± 950 nM. The “decrease in thiopeptide affinity vs WT” value (F123A mutant of TipAL [6]; F123A vs WT TipAL, ITC) was about 1.4 fold.

B1: TipAN: N terminus of TipAL, residues 1–109 (protein)
chain: MSYSVGQVAGFAGVTVRTLHHYDDIGLLVPSERSHAGHRRYSDADLDRLQQILFYRELGFPLDEVAALLDDPAADPRAHLRRQHELLSARIGKLQKMAAAVEQAMEARS
modifications: left off: His6, end not stated, state not stated
For B1, the “transcriptional activity in the absence of the TipAS domain” value [7] is listed as “constitutively transcriptionally active” and the Kd [8] is listed as 44 ± 5.1 nM.

B2: ptipA (dsDNA)
DNA 1: TTGCACCTCACGTCACGTGAGGAGGC
DNA 2: GCCTCCTCACGTGACGTGAGGTGCAA
B2 gave a Kd (TipAL F123A/F126A) of 317 ± 51.4 nM, a Kd (TipAL F123A) of 228 ± 25.9 nM and a Kd (TipAL I112A/F123A) of 685 ± 97.9 nM. It also gave a Kd (TipAL [9]) of 30.2 ± 3.7 nM, a Kd (TipAH7) of 318 ± 58.5 nM and a Kd (TipAN) of 44 ± 5.1 nM.
